ChEMBL document CHEMBL5316338, “Discovery of Novel PTP1B Inhibitors with Once-Weekly Therapeutic Potential for Type 2 Diabetes: Design, Synthesis, and In Vitro and In Vivo Investigations of BimBH3 Peptide Analogues” (J Med Chem, 2023)
Active and inactive are the calls of the source. The rule behind the calls is not given here. Square brackets hold non-standard residues; d marks the D form. Peptide text beside a SMILES is read from it. * marks the point of attachment. ξ: configuration not given here. C22 diacid = O=C(O)CCCCCCCCCCCCCCCCCCCCC(=O)*; C20 diacid = O=C(O)CCCCCCCCCCCCCCCCCCC(=O)*; Stearoyl = CCCCCCCCCCCCCCCCCC(=O)*; ξR = N=C(N)NCCCC(N)C(=O)O

Columns and labels:
[1] = molecular target: T1, Tyrosine-protein phosphatase non-receptor type 1 (Homo sapiens) (UniProt P18031); test: Inhibition of N-terminal His tagged recombinant human PTP1B expressed in Escherichia coli using pNPP as substrate assessed as substrate hydrolysis at 40 umol/L relative to control; conditions: dose 40.0 µmol/L
T1 sequence (whole entry): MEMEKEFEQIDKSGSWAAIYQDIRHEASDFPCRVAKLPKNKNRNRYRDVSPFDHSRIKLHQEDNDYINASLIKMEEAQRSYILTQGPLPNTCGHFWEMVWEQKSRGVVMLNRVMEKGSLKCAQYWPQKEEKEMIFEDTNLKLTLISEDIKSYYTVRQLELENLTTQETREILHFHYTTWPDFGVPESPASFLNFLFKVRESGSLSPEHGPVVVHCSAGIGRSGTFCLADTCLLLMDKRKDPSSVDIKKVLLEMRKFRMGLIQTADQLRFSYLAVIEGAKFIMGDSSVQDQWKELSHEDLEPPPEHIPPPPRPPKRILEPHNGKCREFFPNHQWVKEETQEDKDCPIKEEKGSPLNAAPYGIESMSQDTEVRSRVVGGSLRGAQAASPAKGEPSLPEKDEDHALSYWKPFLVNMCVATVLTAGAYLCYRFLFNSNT

[2] = molecular target: T2, Tyrosine-protein phosphatase non-receptor type 1 (Homo sapiens, UniProt P18031); test: Inhibition of N-terminal His tagged recombinant human PTP1B expressed in Escherichia coli using pNPP as substrate assessed as substrate hydrolysis
T2 sequence (P18031 whole entry): T1 sequence (whole entry)

[3] = molecular target: T3, Tyrosine-protein phosphatase non-receptor type 2 (Homo sapiens, UniProt P17706); test: Inhibition of recombinant human TC-PTP (1 to 314 residues) expressed in baculovirus infected insect cells using pNPP as substrate assessed as substrate hydrolysis; set-up: species or system Insect cell
T3 sequence (P17706 whole entry): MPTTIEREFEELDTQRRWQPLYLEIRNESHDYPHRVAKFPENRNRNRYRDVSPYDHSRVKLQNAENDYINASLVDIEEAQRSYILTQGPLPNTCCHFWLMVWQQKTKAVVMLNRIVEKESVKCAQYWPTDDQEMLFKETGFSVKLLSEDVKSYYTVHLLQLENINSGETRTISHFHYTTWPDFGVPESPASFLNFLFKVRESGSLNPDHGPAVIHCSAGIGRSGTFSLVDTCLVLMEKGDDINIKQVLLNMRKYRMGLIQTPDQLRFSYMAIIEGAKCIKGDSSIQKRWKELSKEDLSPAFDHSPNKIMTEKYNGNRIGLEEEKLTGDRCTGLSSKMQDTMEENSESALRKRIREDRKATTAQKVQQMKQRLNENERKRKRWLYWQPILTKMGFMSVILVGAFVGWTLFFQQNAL

[4] = molecular target: T4, Tyrosine-protein phosphatase non-receptor type 2 (Homo sapiens) (UniProt P17706); test: Inhibition of recombinant human TC-PTP (1 to 314 residues) expressed in baculovirus infected insect cells using pNPP as substrate assessed as substrate hydrolysis at 50 umol/L relative to control; conditions: Insect cell, dose 50.0 µmol/L
T4 sequence (whole entry): T3 sequence (P17706 whole entry)

Homo sapiens = species: Homo sapiens; test: Selectivity index, ratio of IC50 for inhibition of recombinant human TC-PTP (1 to 314 residues) expressed in baculovirus infected insect cells to IC50 for inhibition of N-terminal His-tagged recombinant human PTP1B expressed in Escherichia coli
Proteinase K = test: Stability of compound assessed as Proteinase K (unknown origin) mediated compound degradation by measuring half-life by HPLC analysis; assay type: ADME
Pepsin = test: Stability of compound assessed as Pepsin (unknown origin) mediated compound degradation by measuring half-life by HPLC analysis; assay type: ADME; conditions: human
chymotrypsin [5] = molecular target: chymotrypsin (Homo sapiens, UniProt P17538+P40313+Q6GPI1+Q99895); test: Stability of compound assessed as chymotrypsin (unknown origin) mediated compound degradation by measuring half-life by RP-HPLC analysis; assay type: ADME, protein assay
carboxypeptidase A = molecular target: T5, carboxypeptidase A (Homo sapiens, UniProt P15085); test: Stability of compound assessed as carboxypeptidase A (unknown origin) mediated compound degradation by measuring half-life by RP-HPLC analysis; assay type: ADME
T5 sequence (P15085 whole entry): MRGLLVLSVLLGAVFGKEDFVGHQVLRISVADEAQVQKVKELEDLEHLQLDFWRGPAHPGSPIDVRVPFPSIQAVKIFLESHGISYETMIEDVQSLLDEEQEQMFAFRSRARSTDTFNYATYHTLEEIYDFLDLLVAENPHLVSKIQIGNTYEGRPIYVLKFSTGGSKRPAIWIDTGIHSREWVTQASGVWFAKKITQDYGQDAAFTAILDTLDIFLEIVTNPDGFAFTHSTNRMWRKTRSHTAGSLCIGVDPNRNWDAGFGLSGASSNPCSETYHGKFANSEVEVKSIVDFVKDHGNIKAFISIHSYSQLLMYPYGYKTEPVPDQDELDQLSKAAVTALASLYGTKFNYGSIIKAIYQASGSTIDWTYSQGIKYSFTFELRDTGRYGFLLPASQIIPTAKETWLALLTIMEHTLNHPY

[6] = Stability of compound assessed as Proteinase K (unknown origin) mediated compound degradation by measuring fold change of half-life by HPLC analysis relative to BimBH312-mer peptide; assay type: ADME
[7] = Stability of compound assessed as Pepsin (unknown origin) mediated compound degradation by measuring fold change of half-life by HPLC analysis relative to BimBH312-mer peptide; assay type: ADME; conditions: human
Chymotrypsin [8] = molecular target: Chymotrypsin (Homo sapiens, UniProt Q99895+P17538+P40313+Q6GPI1); test: Stability of compound assessed as chymotrypsin (unknown origin) mediated compound degradation by measuring fold change of half-life by RP-HPLC analysis relative to BimBH312-mer peptide; assay type: ADME, protein assay
Carboxypeptidase A1 = molecular target: T6, Carboxypeptidase A1 (Homo sapiens, UniProt P15085); test: Stability of compound assessed as carboxypeptidase A (unknown origin) mediated compound degradation by measuring fold change of half-life by RP-HPLC analysis relative to BimBH312-mer peptide; assay type: ADME
T6 sequence (P15085 whole entry): T5 sequence (P15085 whole entry)

Mus musculus [9] = test: Antidiabetic activity against C57BL/Ks db/db mouse assessed as redcution in fasting blood glucose level at 1 umol/kg administered subcutaneously and measured immediately by glucometer analysis (reference value: 19.0 +/- 2.7 […]); assay type: functional; conditions: dose 1 µmol/kg; route sc
Mus musculus [10] = test: Antidiabetic activity against C57BL/Ks db/db mouse assessed as redcution in fasting blood glucose level at 1 umol/kg, sc administered once a week and measured on day 8 by glucometer analysis (reference value: 27.7 +/- 3.7 […]); assay type: functional; conditions: dose 1 µmol/kg, time 8 day
Mus musculus [11] = test: Antidiabetic activity against C57BL/Ks db/db mouse assessed as redcution in fasting blood glucose level at 1 umol/kg, sc administered once a week and measured on day 15 by glucometer analysis (reference value: 27.3 +/- 2.4 […]); assay type: functional; conditions: dose 1 µmol/kg, time 15 day
Mus musculus [12] = test: Antidiabetic activity against C57BL/Ks db/db mouse assessed as redcution in fasting blood glucose level at 1 umol/kg, sc administered once a week and measured on day 24 by glucometer analysis (reference value: 30.2 +/- 3.2 […]); assay type: functional; conditions: dose 1 µmol/kg, time 24 day
Mus musculus [13] = test: Antidiabetic activity against C57BL/Ks db/db mouse assessed as redcution in fasting blood glucose level at 1 umol/kg, sc administered once a week and measured on day 26 by glucometer analysis (reference value: 31.4 +/- 2.2 […]); assay type: functional; conditions: dose 1 µmol/kg, time 26 day
Mus musculus [14] = test: Antidiabetic activity against C57BL/Ks db/db mouse assessed as redcution in fasting blood glucose level at 1 umol/kg, sc administered once a week and measured on day 28 by glucometer analysis (reference value: 32.4 +/- 1.1 […]); assay type: functional; conditions: dose 1 µmol/kg, time 28 day
Mus musculus [15] = test: Antidiabetic activity against over-night fasted C57BL/ks db/db mouse assessed as suppression of increased blood glucose concentration at 1 uM/kg, sc pretreated with compound for 4 weeks followed by oral glucose stimulation and measured upto 120 mins by oral glucose tolerance test; assay type: functional, organism-based; conditions: time 40440.0 min
Mus musculus [16] = test: Antidiabetic activity against over-night fasted C57BL/ks db/db mouse assessed as suppression of increased blood glucose concentration at 1 uM/kg, sc pretreated with compound for 4 weeks followed by insulin stimulation and measured for 90 mins by insulin tolerance test; assay type: functional, organism-based; conditions: time 40410.0 min
Mus musculus [17] = test: Antidiabetic activity against sc dosed C57BL/Ks db/db mouse assessed as reduction in serum insulin level at 1 umol/kg by ELISA analysis; assay type: functional, organism-based; conditions: dose 1.0 µmol/kg
Mus musculus [18] = test: Antidiabetic activity against sc dosed C57BL/Ks db/db mouse assessed as reduction in C-peptide level at 1 umol/kg by ELISA analysis; assay type: functional, organism-based; conditions: dose 1.0 µmol/kg
Mus musculus [19] = test: Antidiabetic activity against sc dosed C57BL/Ks db/db mouse assessed as reduction in glucagon level at 1 umol/kg by ELISA analysis; assay type: functional, organism-based; conditions: dose 1.0 µmol/kg
Mus musculus [20] = test: Antidiabetic activity against C57BL/Ks db/db mouse assessed as redcution in fasting blood glucose level at 1 umol/kg, sc administered once a week and measured on day 22 by glucometer analysis (reference value: 27.4 +/- 1.8 […]); assay type: functional; conditions: dose 1 µmol/kg, time 22 day

Row | Compound | inhibition [1] [%] | IC50 [2] [nM] | IC50 [3] [nM] | Ratio IC50 (Homo sapiens) | half-life (Proteinase K) [h] | half-life (Pepsin) [h] | half-life (chymotrypsin [5]) [h] | half-life (carboxypeptidase A) [h] | fold change (FC) [6] | fold change (FC) [7] | fold change (FC) (Chymotrypsin [8]) | fold change (FC) (Carboxypeptidase A1) | Fasting blood glucose level (Mus musculus [9]) [mmol/L] | Fasting blood glucose level (Mus musculus [10]) [mmol/L] | Fasting blood glucose (Mus musculus [11]) [mmol/L] | Fasting blood glucose level (Mus musculus [12]) [mmol/L] | Fasting blood glucose level (Mus musculus [13]) [mmol/L] | Fasting blood glucose level (Mus musculus [14]) [mmol/L] | Activity (Mus musculus [15]) | Activity (Mus musculus [16]) | further results
1 | CC[C@H](C)[C@H](NC(=O)CCCCCCCCCCCCCCCCCCC(=O)O)C(=O)N[C@@H](C)C(=O)N[C@@H](CCC(N)=O)C(=O)N[C@@H](CCC(=O)O)C(=O)N[C@@H](CC(C)C)C(=O)N[C@@H](CCCNC(=N)N)C(=O)NC(CCCNC(=N)N)C(=O)N[C@H](C(=O)NCC(=O)N[C@@H](CC(=O)O)C(=O)N[C@@H](CCC(=O)O)C(=O)N[C@@H](Cc1ccccc1)C(=O)O)[C@@H](C)CC (stereo partly drawn) ({C20 diacid}-IAQELR[ξR]IGDEF-OH) | > 50 | 443 | > 50000 | > 113 | 0.9 | 1.52 | 0.5 | 0.25 | 18 | 69.1 | 11.6 | 7.8 | 18.6 | 11.3 | 9.7 | 16 | 19 | 19.2 | Active | Active | inhibition [4]: < 50%; Activity (Mus musculus [17]): Active; Activity (Mus musculus [18]): Active; Activity (Mus musculus [19]): Active
2 | CCCCCCCCCCCCCCCCCC(=O)N[C@H](C(=O)N[C@@H](C)C(=O)N[C@@H](CCC(N)=O)C(=O)N[C@@H](CCC(=O)O)C(=O)N[C@@H](CC(C)C)C(=O)N[C@@H](CCCNC(=N)N)C(=O)NC(CCCNC(=N)N)C(=O)N[C@H](C(=O)NCC(=O)N[C@@H](CC(=O)O)C(=O)N[C@@H](CCC(=O)O)C(=O)N[C@@H](Cc1ccccc1)C(=O)O)[C@@H](C)CC)[C@@H](C)CC (stereo partly drawn) (Stearoyl-IAQELR[ξR]IGDEF-OH) | > 50 | 120 | 13600 | 113 | 1.43 | 7.36 | 7.33 | 17.6 | 28.6 | 334.5 | 170.5 | 549.1 | 20.4 | 11.8 | 12.8 | 18.1 | 16.3 | 19.8 | Active | Active | Fasting blood glucose level (Mus musculus [20]): 15.6 mmol/L; Activity (Mus musculus [17]): Active; Activity (Mus musculus [18]): Active; Activity (Mus musculus [19]): Active
3 | CC[C@H](C)[C@H](NC(=O)CCCCCCCCCCCCCCCCCCCCC(=O)O)C(=O)N[C@@H](C)C(=O)N[C@@H](CCC(N)=O)C(=O)N[C@@H](CCC(=O)O)C(=O)N[C@@H](CC(C)C)C(=O)N[C@@H](CCCNC(=N)N)C(=O)NC(CCCNC(=N)N)C(=O)N[C@H](C(=O)NCC(=O)N[C@@H](CC(=O)O)C(=O)N[C@@H](CCC(=O)O)C(=O)N[C@@H](Cc1ccccc1)C(=O)O)[C@@H](C)CC (stereo partly drawn) ({C22 diacid}-IAQELR[ξR]IGDEF-OH) | > 50 | 200 | > 50000 | > 250 | 0.51 | 1.41 | 6.81 | 1.28 | 10.2 | 64.1 | 158.4 | 40 | 19.7 | 11.5 | 11 | 16 | 19.7 | 17 | Active | Active | inhibition [4]: < 50%; Fasting blood glucose level (Mus musculus [20]): 11.4 mmol/L; Activity (Mus musculus [17]): Active; Activity (Mus musculus [18]): Active; Activity (Mus musculus [19]): Active
